In US11717476B2, “Moringa peregrina seed extract rich in 2,5-diformylfuran, process for obtaining same and use thereof in cosmetic compositions” (priority 2020, dated 2023):

Assays:
phospholipase A2 = biological target: T1, phospholipase A2 (Homo sapiens, UniProt P39877); experiment: sPLA2 (type V) Inhibitor Screening Assay Kit; type: biochemical; conditions: 1 mg in 100 μl
T1 construct: purchased
T1 sequence (P39877 21-138): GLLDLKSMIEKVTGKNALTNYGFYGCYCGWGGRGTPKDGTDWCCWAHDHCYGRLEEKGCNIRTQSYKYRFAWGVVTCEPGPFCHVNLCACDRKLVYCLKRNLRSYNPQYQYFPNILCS
From the text: The object of this study is to evaluate the modulation of the […] activity of the enzyme phospholipase A2 by one or more samples in an in vitro acellular model by means of the “SPLA2 (type V) Inhibitor Screening Assay Kit”. Phospholipase A2 is a key enzyme upstream of the inflammatory process which is triggered by the arachidonic cascade. A buffered solution of phospholipase A2 reacts with a specific substrate, diheptanoyl thio-PC, and transforms it into a compound which binds to a chromogen, DTNB, with agitation at room temperature. The phospholipase A2 activity may thus be evaluated by measuring the absorbance at 413 nm. […] The substrate transformed by the enzyme is stained by means of the chromogen DTNB by agitation at room temperature. […] The modulation of this activity is expressed as a percentage of inhibition or of activation of the phospholipase A2 activity in the absence of the active agent, i.e. only in the presence of the enzyme substrate (diheptanoyl thio-PC).
At the end of the incubation period, the activity of the enzyme phospholipase A2 with and without the test product or the reference product is evaluated by measuring the absorbance of the reaction media at 413 nm. For each concentration tested, the modulation of the phospholipase A2 enzymatic activity with the test product is calculated according to the following formula. […]

telomerase = experiment: Telomerase activity in adult keratinocytes in monolayer culture (PCR-ELISA kit); type: cell-based, human; conditions: 100 ng/ml; 24 hours
Method: Protocol: Human keratinocytes were obtained from a donor. To perform the experiments, the keratinocytes were used at a low passage level (i.e., cell isolation passage number 2). The cells were grown as a monolayer until they reached about 75% of confluence before being used in the experiment. Reference product: FK228 at 100 ng/ml was used as a reference inducer of telomerase 1 activity. Incubation protocol: […] At the end of the incubation period, the telomerase was extracted from the cells and its activity was determined by means of a specific, sensitive kit. The principle of the telomerase kit is to measure the telomerase activity by coupling a PCR step (in which telomerase functions as regards its elongation activity) with an ELISA step for semi-quantitative determination of amounts of telomerase elongation product. The results are expressed in arbitrary units for the telomerase activity level (mean±S.D). The significance level between the “vehicle” and the “reference product” was evaluated by means of a Student's t test (*: p<0.05). The significance level between “control” and “test compound” was evaluated independently for each product by a one-way analysis of variance (one-way ANOVA) followed by a Holm-Sidak test (*: p<0.05).

| Structure (SMILES) | inhibition of PLA2 activity (phospholipase A2) [%] | increase of telomerase activity (telomerase) [%] |
| --- | --- | --- |
| CCCCCCCCCCCCCCCCSC[C@H](COP(=O)(O)OCC[N+](C)(C)C)NC(=O)CCCCCCCCCCCCCCC [thioetheramide-PC] | 93 | – |
| C/C=C1\NC(=O)[C@H]2CSSCC/C=C/[C@H](CC(=O)N[C@H](C(C)C)C(=O)N2)OC(=O)[C@H](C(C)C)NC1=O [FK228] | – | 28.0 |
